Experimental data: PMC6152004 (Molecules : A Journal of Synthetic Chemistry and Natural …, 2017)
Where two headings read alike, the source gives them in different places.

Key:
[1] = biological target: T1, recombinant prolyl oligopeptidase (POP) (Homo sapiens, UniProt P48147); experiment: Prolyl oligopeptidase assay, substrate Z-Gly-Pro-p-nitroanilide; type: biochemical
T1 construct: purchased Sigma-Aldrich (Prague, Czech Republic)
T1 sequence (P48147 1-710): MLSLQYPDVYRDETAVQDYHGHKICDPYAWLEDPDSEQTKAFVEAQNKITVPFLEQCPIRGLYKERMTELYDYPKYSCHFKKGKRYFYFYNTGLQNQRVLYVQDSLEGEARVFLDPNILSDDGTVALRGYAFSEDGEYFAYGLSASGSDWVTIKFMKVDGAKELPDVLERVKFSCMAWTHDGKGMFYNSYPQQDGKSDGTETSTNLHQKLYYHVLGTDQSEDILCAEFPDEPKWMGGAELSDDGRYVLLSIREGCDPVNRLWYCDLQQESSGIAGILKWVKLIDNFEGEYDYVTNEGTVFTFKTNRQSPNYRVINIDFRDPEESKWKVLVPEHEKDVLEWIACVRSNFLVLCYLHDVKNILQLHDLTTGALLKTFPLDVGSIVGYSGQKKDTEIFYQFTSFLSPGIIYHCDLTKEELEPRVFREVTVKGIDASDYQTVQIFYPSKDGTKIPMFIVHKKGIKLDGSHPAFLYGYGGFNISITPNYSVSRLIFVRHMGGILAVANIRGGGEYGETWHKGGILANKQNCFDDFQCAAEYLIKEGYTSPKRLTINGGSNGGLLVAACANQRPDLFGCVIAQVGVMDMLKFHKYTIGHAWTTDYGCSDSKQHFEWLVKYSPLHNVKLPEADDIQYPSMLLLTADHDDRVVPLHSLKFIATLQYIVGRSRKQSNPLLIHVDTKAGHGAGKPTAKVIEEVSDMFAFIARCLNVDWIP

[2] = biological target: T2, human blood acetylcholinesterase (AChE) (Homo sapiens, UniProt P22303); experiment: AChE inhibition, modified Ellman's method, red blood cell lysate; type: biochemical
T2 construct: Red blood cell lysate was used as a source of AChE and human plasma as a source of BChE; from tissue; host or cells: human erythrocytes (lysate) from freshly drawn blood of healthy volunteers

[3] = biological target: human plasma butyrylcholinesterase (BChE) (Homo sapiens, UniProt P06276); experiment: biochemical
[4] = tested on: AChE; settings: cited from earlier work; for IC50: read-out: AChE IC50
[5] = tested on: BChE; settings: read-out: BChE IC50; cited from earlier work
[6] = biological target: T1, recombinant prolyl oligopeptidase (POP); settings: tested previously; cited from earlier work
[7] = isolated from Fumaria vaillantii, review of Sener and Orhan

T2 sequence (P22303 32-617 isoform P22303-2 limits assumed): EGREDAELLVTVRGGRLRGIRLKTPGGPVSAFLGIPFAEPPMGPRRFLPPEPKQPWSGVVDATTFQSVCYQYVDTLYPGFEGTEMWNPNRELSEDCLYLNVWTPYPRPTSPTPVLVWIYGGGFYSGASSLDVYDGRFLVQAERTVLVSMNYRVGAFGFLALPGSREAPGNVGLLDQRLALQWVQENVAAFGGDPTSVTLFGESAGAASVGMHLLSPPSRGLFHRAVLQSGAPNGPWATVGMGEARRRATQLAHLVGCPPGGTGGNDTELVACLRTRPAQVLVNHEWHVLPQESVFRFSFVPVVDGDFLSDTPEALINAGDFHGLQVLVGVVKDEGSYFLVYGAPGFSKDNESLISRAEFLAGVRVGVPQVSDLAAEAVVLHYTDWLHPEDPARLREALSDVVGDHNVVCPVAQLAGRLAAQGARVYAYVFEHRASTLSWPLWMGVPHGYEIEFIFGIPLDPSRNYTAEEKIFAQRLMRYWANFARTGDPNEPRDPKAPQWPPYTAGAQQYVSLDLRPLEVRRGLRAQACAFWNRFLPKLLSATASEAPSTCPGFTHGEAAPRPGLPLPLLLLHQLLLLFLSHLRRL
Sequence of human plasma butyrylcholinesterase (BChE) (P06276 29-602): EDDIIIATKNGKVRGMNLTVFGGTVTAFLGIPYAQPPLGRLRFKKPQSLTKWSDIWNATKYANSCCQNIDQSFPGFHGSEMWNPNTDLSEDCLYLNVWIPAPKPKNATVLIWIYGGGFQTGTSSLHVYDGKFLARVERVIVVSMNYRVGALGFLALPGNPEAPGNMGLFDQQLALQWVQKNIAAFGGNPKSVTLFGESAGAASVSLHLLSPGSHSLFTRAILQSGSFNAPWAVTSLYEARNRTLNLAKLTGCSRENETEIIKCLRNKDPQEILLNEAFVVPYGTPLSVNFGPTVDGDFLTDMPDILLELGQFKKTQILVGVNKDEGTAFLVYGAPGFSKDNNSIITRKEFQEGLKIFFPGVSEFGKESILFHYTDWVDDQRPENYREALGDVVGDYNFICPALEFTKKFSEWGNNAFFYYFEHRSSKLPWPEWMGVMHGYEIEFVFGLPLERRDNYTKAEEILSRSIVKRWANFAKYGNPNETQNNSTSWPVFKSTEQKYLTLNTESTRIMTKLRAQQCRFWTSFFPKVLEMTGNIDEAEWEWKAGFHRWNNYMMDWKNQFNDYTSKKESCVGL

Row | Molecule | IC50 [2] | IC50 [3] | IC50 [4] | other results
1 | COc1cc2c(cc1O)[C@@H]1Cc3ccc(OC)c(O)c3[C@H](C2)N1C [Compound 6, (–)-munitagine] | 62.3 ± 5.8 µM | 837 ± 23 µM | – | IC50 [1]: 277 ± 31.3 µM
2 | COc1ccc(CC2c3cc4c(cc3CCN2C)OCO4)c(C=O)c1OC (single isomer, unassigned; (+)) [canadaline, (+)-canadaline] | – | – | 20.1 µM | –
3 | COc1cc2c(cc1O)C(Cc1ccc(O)cc1)N(C)CC2 (single isomer, unassigned; (+)) [(+)-N-methylcoclaurine] | – | – | > 220 µM | IC50 [5]: 15 ± 1.4 µM
4 | COc1cc2c(cc1O)[C@@H]1Cc3cc(OC)c(OC)cc3[C@H](C2)N1C [Compound 7, (–)-norargemonine] | 205 ± 11.7 µM | > 1000 µM | – | –
5 | COc1ccc2c(c1OC)CN(C)CCc1cc3c(cc1C(=O)C2)OCO3 [Compound 4, allocryptopine] | 250 ± 25 µM | 530 ± 28.2 µM | – | IC50 [1]: > 1000 µM; IC50 [4, 7]: 1.3 µM
6 | protopine [Compound 2] | – | – | – | Type of AChE inhibition [4]: dose-dependent, specific, reversible and competitive AChE inhibitor; IC50 [4, 7]: 1.8 µM
7 | (–)-californidine | – | – | 36.7 ± 0.9 µM | –
8 | COc1cc2c(cc1OC)[C@@H]1Cc3ccc(OC)c(O)c3[C@H](C2)N1C [Compound 5, (–)-platycerine] | 224 ± 19.6 µM | > 1000 µM | – | IC50 [6]: 687 ± 74 µM
9 | COc1cc2c(cc1O)[C@@H]1Cc3cc4c(cc3[C@H](C2)N1C)OCO4 [(–)-caryachine] | – | – | 19.6 ± 0.4 µM | –
10 | COc1cc2c(cc1OC)[C@@H]1Cc3cc(OC)c(OC)cc3[C@H](C2)N1C [Compound 3, (–)-argemonine] | > 1000 µM | 885 ± 119 µM | – | IC50 [1]: 337 ± 83.1 µM
11 | COc1ccc(C[C@H]2c3cc(O)c(OC)cc3CCN2C)cc1O [(+)-reticuline] | – | – | > 220 µM | IC50 [5]: 33.6 ± 3 µM
